Assays:
[1] = Ratio of bioavailability in rat adrenal and rat blood.; type: functional, organism-based
[2] = Ratio of bioavailability in rat blood and rat brain.; type: functional, organism-based
[3] = Ratio of bioavailability in rat heart and rat blood.; type: functional, organism-based
[4] = system: V79; assay: Net accumulation of the [99mTc]Isonitrile complex was measured in 77A cell lines in the presence of Verapamil.; type: functional, cell-based
[5] = system: V79; assay: Verapamil index represents the ratio of net uptake in the presense of verapamil over control in 77A cell lines.; type: functional, cell-based
[6] = system: V79; assay: Net accumulation of the [99mTc]Isonitrile complex was measured in V79 cell lines in the presence of Verapamil.; type: functional, cell-based; settings: Cricetulus griseus
[7] = system: V79; assay: Verapamil index represents the ratio of net uptake in the presense of verapamil over control in V79 cell lines.; type: functional, cell-based; settings: Cricetulus griseus
[8] = system: Rattus norvegicus; assay: Biodistribution values represent the mean % id/organ for paired rats 30 min post intravenous injection complex in Liver; type: ADME, organism-based; settings: in vivo, 0.5 h
[9] = system: Rattus norvegicus; assay: Biodistribution values represent the mean % id/organ for paired rats 30 min post intravenous injection complex in Heart; type: ADME, organism-based; settings: in vivo, 0.5 h
[10] = system: Rattus norvegicus; assay: Biodistribution values represent the mean % id/organ for paired rats 30 min post intravenous injection complex in Muscles; type: ADME, organism-based, Muscle tissue; settings: in vivo, 0.5 h
[11] = system: Rattus norvegicus; assay: Biodistribution values represent the mean % id/organ for paired rats 30 min post intravenous injection complex in Kidney; type: ADME, organism-based; settings: in vivo, 0.5 h
[12] = system: Rattus norvegicus; assay: Biodistribution values represent the mean % id/organ for paired rats 30 min post intravenous injection complex in Skin; type: ADME, organism-based; settings: in vivo, 0.5 h
[13] = system: Rattus norvegicus; assay: Biodistribution values represent the mean % id/organ for paired rats 30 min post intravenous injection complex in Spleen; type: ADME, organism-based; settings: in vivo, 0.5 h
[14] = system: Rattus norvegicus; assay: Biodistribution values represent the mean % id/organ for paired rats 30 min post intravenous injection complex in Fat; type: ADME, organism-based; settings: in vivo, 0.5 h
[15] = system: Rattus norvegicus; assay: Biodistribution values represent the mean % id/organ for paired rats 30 min post intravenous injection complex in Adrenal; type: ADME, organism-based; settings: in vivo, 0.5 h
[16] = system: Rattus norvegicus; assay: Biodistribution values represent the mean % id/organ for paired rats 30 min post intravenous injection complex in Bone; type: ADME, organism-based, Bone element; settings: in vivo, 0.5 h
[17] = system: Rattus norvegicus; assay: Biodistribution values represent the mean % id/organ for paired rats 30 min post intravenous injection complex in GI; type: ADME, organism-based; settings: in vivo, 0.5 h
[18] = system: Rattus norvegicus; assay: Biodistribution values represent the mean % id/organ for paired rats 30 min post intravenous injection complex in Blood; type: ADME, organism-based; settings: in vivo, 0.5 h
[19] = system: Rattus norvegicus; assay: Biodistribution values represent the mean % id/organ for paired rats 30 min post intravenous injection complex in Brain; type: ADME, organism-based; settings: in vivo, 0.5 h
[20] = system: Rattus norvegicus; assay: Biodistribution values represent the mean % id/organ for paired rats 30 min post intravenous injection complex in Lungs; type: ADME, organism-based, Lung; settings: in vivo, 0.5 h

Substance | Ratio [1] | Ratio [2] | Ratio [3] | Net accumulation ([4]; Cricetulus griseus) | Verapamil index ([5]; Cricetulus griseus) | other results
Hexakis[4-Acetylbenzeneisonitrile]technetium Complex | 22 | 17 | 0.6 | 826 | 1.73 | 
Hexakis[5-Methoxy-2-methyl-4-nitrobenzeneisonitrile]technetium Complex [listing 1 of 2 here] | 1.8 | 28 | 0.4 |  |  | Net accumulation [6]: 31.7; Verapamil index [7]: 0.87
Hexakis[3-Nitrobenzeneisonitrile]technetium Complex | 0.6 | 31 | 0.4 |  |  | Net accumulation [6]: 14; Verapamil index [7]: 0.99
Hexakis[3-(hydroxymethyl)benzeneisonitrile]technetium Complex | 6.2 | 27 | 0.7 |  |  | Net accumulation [6]: 257; Verapamil index [7]: 2.38
Hexakis[2-(3,4-Dimethoxyphenyl)ethaneisonitrile]technetium Complex | 4.1 | 23 | 0.4 |  |  | Net accumulation [4]: 146; Verapamil index [5]: 3.3
Hexakis[3,5-Dimethoxy-alpha-tolueneisonitrile]technetium Complex | 3.1 | 28 | 0.4 | 315 | 2.19 | 
Hexakis[3,4,5-Trimethoxy-alpha-tolueneisonitrile]technetium Complex | 24 | 6.7 | 5.5 | 57 | 0.81 | 
Hexakis[4-Methoxy-alpha-tolueneisonitrile]technetium Complex | 2.5 | 30 | 0.3 | 359 | 2.6 | 
Hexakis[2-Methoxy-5-nitrobenzeneisonitrile]technetium Complex | 0.9 | 38 | 0.5 |  |  | Net accumulation [6]: 58.3; Verapamil index [7]: 0.96
Hexakis[3,4-(Methylenedioxy)benzeneisonitrile]technetium Complex | 14 | 9.3 | 0.4 | 93.9 | 1.87 | 
Hexakis[3,5-Dimethoxybenzeneisonitrile]technetium Complex | 1.7 | 7.5 | 1 | 15.3 | 1.84 | 
Hexakis[3,4-(Methylenedioxy)-alpha-tolueneisonitrile]technetium Complex | 6.9 | 36 | 0.6 |  |  | Net accumulation [6]: 287; Verapamil index [7]: 1.11
Hexakis[2-(3,4,5-Trimethoxyphenyl)ethaneisonitrile]technetium Complex | 54 | 5 | 9 | 101 | 1.07 | 
Hexakis[4-Nitrobenzeneisonitrile]technetium Complex | 0.6 | 39 | 0.3 | 29.1 | 1.15 | 
Hexakis-(2-methoxyisobutylisonitrile)Technetium (99mTc-MIBI) | 158 | 0.7 | 120 | 102 | 32.9 | Net accumulation [6]: 70.4; Verapamil index [7]: 3.91
Hexakis[3,4-Dimethoxybenzeneisonitrile]technetium Complex | 7.3 | 26 | 0.7 | 397 | 3.52 | 
Hexakis[4-Cyanobenzeneisonitrile]technetium Complex | 1.2 | 31 | 0.3 | 161 | 1.61 | 
Hexakis[3,4-Dimethoxy-alpha-tolueneisonitrile]technetium Complex | 7.9 | 19 | 0.6 | 362 | 1.53 | 
Hexakis[2-(4-Methoxyphenyl)ethaneisonitrile]technetium Complex | 13 | 26 | 3.5 | 494 | 3.09 | 
Hexakis[3-Acetamidobenzeneisonitrile]technetium Complex | 8.8 | 15 | 0.7 | 147 | 0.77 | 
Hexakis[5-Methoxy-2-methyl-4-nitrobenzeneisonitrile]technetium Complex [listing 2 of 2 here] |  |  |  |  |  | ID/organ [8]: 71.9%; ID/organ [9]: 0.14%; ID/organ [10]: 1.28%; ID/organ [11]: 1.13%; ID/organ [12]: 0.77%; ID/organ [13]: 3.05%; ID/organ [14]: 0.32%; ID/organ [15]: 0.03%; ID/organ [16]: 5.59%; ID/organ [17]: 3.96%; ID/organ [18]: 6.88%; ID/organ [19]: 0.03%; ID/organ [20]: 0.72%
